# Laboratory results taken from patent US9670226B2, “Sesquiterpenoids” (National Institute of Biological Sciences, Beijing, priority 2014, dated 2017).
# Legend:
# cancer cells = experiment: Cell death in cancer cells (cell line not given); assay type: cell-based; settings: addition of DTT
# IFR3 phosphorylation = experiment: LPS-induced type I interferon (IFN) responses; assay type: cell-based
# TAK1 = TAK1 (Homo sapiens, UniProt O43318); experiment: Association with other NF-κB pathway proteins; assay type: binding
# IKKα Cys46 into serine = molecular target: T1, IKKα Cys46 into serine (Homo sapiens, UniProt O15111, C46S); experiment: Binding to Cys46-to-serine mutant
# T1 construct: Flag; made in house
# [1] = system: Phosphorylation of IKKα/β; experiment: TRAF6-induced IKKα/β phosphorylation in S100 cell lysates from 293T cells; assay type: biochemical; settings: S100 cell lysates from 293T cells with recombinant TRAF6
# Description: TNF receptor-associated factors (TRAFs) are important intermediates in NF-κB signaling pathway. For example, TRAF2 and TRAF5 regulate TNF-α receptor triggered IKK activation, whereas TRAF6 is required for IL-1 induced IKK activation^2. The latter pathway can be reconstituted in cell-free extracts by adding recombinant TRAF6 protein. Phosphorylation of IKKα/β was detected in S100 cell lysates from 293T cells when incubated with recombinant TRAF6.
# [2] = system: cervical cancer HeLa cells; experiment: Cancer cell survival; assay type: cell-based, human
# [3] = system: production of NO in a mouse macrophage cell line RAW264.7; settings: RAW264.7 stimulated by LPS; previously shown (ref 22); cited from earlier work
# phosphorylation of IκBα [4] = experiment: TNF induced IκBα phosphorylation in different cell lines; assay type: cell-based
# [5] = system: IKKβ C46 containing peptide (#1, #2; amino acids 41-53); experiment: Peptide binding by MALDI-TOF; set-up: species or system human
# Description: (§1) This peptide was tested for binding to 223 and probe by using MALDI-TOF (Matrix-Assisted […] Desorption/Ionization Time of Flight). m/z values at 2,047.978 and 2,479.259 were well matched with the calculated weights of #1+223 and #1+Probe, respectively. […] As expected, the peptide #2 containing amino acids 41-53 of human IKKβ interacted with both 223 and probe.
# [6] = molecular target: T2, IKKβ C46 containing peptide (#1, #2; amino acids 41-53) (Homo sapiens, UniProt O14920); experiment: Peptide binding by MALDI-TOF
# T2 construct: encompasses amino acids 41-53 of human IKKβ; made in house; host or cells: chemical peptide synthesis
# Description: as §1
# phosphorylation of IκBα [7] = experiment: LPS induced NF-κB activation: IκBα phosphorylation in RAW264.7 cells (western blot); assay type: cell-based, mouse
# [8] = system: NIK-mediated production of p52 (IKKα activity); experiment: NIK-mediated non-canonical NF-κB activation (processing of p100 to p52); assay type: cell-based; settings: ectopic expression of NIK
# Description: Since phosphorylation of p100 by IKKα is critical for NIK-mediated activation of the non-canonical NF-κB, we further investigated the effect of 223 on non-canonical NF-κB activation.
# Sequence of TAK1 (O43318 whole entry): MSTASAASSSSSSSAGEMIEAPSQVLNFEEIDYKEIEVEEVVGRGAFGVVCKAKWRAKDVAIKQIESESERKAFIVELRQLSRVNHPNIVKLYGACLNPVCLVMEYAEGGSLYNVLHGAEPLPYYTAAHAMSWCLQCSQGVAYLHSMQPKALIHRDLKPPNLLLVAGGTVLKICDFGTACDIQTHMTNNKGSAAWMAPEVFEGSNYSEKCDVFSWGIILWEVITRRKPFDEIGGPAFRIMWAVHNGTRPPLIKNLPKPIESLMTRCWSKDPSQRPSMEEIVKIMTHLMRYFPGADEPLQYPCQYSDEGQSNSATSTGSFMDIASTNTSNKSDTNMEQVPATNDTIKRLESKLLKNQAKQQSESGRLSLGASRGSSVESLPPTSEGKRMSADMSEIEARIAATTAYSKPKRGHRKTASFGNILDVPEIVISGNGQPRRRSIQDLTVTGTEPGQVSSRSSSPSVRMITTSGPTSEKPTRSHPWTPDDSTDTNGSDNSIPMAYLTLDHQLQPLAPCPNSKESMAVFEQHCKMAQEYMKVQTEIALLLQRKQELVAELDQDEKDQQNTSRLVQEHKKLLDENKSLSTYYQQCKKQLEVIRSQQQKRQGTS
# T1 sequence (O15111 whole entry C46S): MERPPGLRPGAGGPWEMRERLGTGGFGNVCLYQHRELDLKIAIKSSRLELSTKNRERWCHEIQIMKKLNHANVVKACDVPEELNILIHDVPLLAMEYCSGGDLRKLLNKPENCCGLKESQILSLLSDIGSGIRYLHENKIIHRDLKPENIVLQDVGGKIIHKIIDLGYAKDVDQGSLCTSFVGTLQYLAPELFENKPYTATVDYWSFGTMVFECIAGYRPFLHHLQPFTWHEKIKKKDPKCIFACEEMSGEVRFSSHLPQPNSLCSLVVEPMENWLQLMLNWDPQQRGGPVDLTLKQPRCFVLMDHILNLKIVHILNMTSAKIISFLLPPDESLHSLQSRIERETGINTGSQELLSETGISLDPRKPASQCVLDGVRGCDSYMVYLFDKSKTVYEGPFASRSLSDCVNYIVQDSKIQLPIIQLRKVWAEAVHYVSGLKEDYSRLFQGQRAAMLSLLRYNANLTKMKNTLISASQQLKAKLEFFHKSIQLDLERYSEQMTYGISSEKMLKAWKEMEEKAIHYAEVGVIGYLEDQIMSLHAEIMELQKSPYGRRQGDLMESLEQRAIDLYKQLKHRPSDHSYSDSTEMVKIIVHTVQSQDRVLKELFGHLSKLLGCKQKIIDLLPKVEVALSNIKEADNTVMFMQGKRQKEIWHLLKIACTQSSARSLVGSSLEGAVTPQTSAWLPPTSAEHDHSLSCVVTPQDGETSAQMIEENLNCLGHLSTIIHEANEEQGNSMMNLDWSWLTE
compound,measurement,setting,value
"C=C1C(=O)O[C@@H]2[C@@H]3[C@@H](C[C@@]4(O)[C@]3(O)CC[C@]43C(=O)C[C@H]4C(=C)CC[C@H]5C(=C)C(=O)O[C@@H]5[C@H]43)C(=C)CC[C@@H]12 [Compound 223, (+)-Ainsliadimer A]",compound-triggered inhibition of cell survival,cancer cells,completely abolished
same,effect on LPS-induced type I interferon (IFN) responses (IFR3 phosphorylation),IFR3 phosphorylation,no effect
same,association with TAK1,TAK1,no association
same,interaction with IKKα Cys46 to serine mutant,IKKα Cys46 into serine,abolished
same,TRAF6-induced phosphorylation of IKKα/β,[1],completely abolished
same,inhibition of cell survival (cell viability by ATP levels),[2]; 48 hours,dose response inhibition
same,cell death,[2]; different concentration,Dramatic cell death
same,inhibitory activity against the production of NO,[3],inhibitory activity
same,TNF induced phosphorylation of IκBα,phosphorylation of IκBα [4],significantly inhibited
same,interaction with peptide #2,[5],interacted
same,binding to peptide #1,[6],could bind
same,inhibitory effect against LPS-induced NF-κB activation in comparison with BMS-345541,phosphorylation of IκBα [7]; RAW264.7 cells,much stronger inhibitory effect
same,concentration that effectively blocks phosphorylation of IκBα,"phosphorylation of IκBα [7]; RAW264.7 cells, pre-treatment, LPS for 10 or 20 minutes",about 8 μM
same,phosphorylation of IκBα,"phosphorylation of IκBα [7]; Raw 264.7 cells pre-incubated with 4 μM for 2 h, 20 ng/ml LPS, 20 minutes, western blot",effectively blocked
same,NIK-mediated production of p52,[8],prevented
